Assay results published in PMC10620772, “Design, synthesis, and biological evaluation of new pyrimidine-5-carbonitrile derivatives as novel anti-cancer, dual EGFR^WT/COX-2 inhibitors with docking studies” (RSC Advances, 2023).

Assays:
Assay type in all cases: cell-based, human
CCRF-CEM = test: NCI60 antitumor screening; settings: 10 μM one-dose
HL-60(TB) = test: NCI60 antitumor screening; settings: 10 μM one-dose
K-562 = test: NCI60 antitumor screening; settings: 10 μM one-dose
MOLT-4 = test: NCI60 antitumor screening; settings: 10 μM one-dose
RPMI-8226 = test: NCI60 antitumor screening; settings: 10 μM one-dose
SR = test: NCI60 antitumor screening; settings: 10 μM one-dose
A549/ATCC = test: NCI60 antitumor screening; settings: 10 μM one-dose
EKVX = test: NCI60 antitumor screening; settings: 10 μM one-dose
HOP-62 = test: NCI60 antitumor screening; settings: 10 μM one-dose
HOP-92 = test: NCI60 antitumor screening; settings: 10 μM one-dose
NCI-H226 = test: NCI60 antitumor screening; settings: 10 μM one-dose
NCI-H23 = test: NCI60 antitumor screening; settings: 10 μM one-dose
NCI-H322M = test: NCI60 antitumor screening; settings: 10 μM one-dose
NCI-H460 = test: NCI60 antitumor screening; settings: 10 μM one-dose
NCI-H522 = test: NCI60 antitumor screening; settings: 10 μM one-dose
COLO 205 = test: NCI60 antitumor screening; settings: 10 μM one-dose
HCC-2998 = test: NCI60 antitumor screening; settings: 10 μM one-dose
HCT-116 = test: NCI60 antitumor screening; settings: 10 μM one-dose
HCT-15 = test: NCI60 antitumor screening; settings: 10 μM one-dose
HT29 = test: NCI60 antitumor screening; settings: 10 μM one-dose
KM12 = test: NCI60 antitumor screening; settings: 10 μM one-dose
SW-620 = test: NCI60 antitumor screening; settings: 10 μM one-dose
SF-268 = test: NCI60 antitumor screening; settings: 10 μM one-dose
SF-295 = test: NCI60 antitumor screening; settings: 10 μM one-dose
SF-539 = test: NCI60 antitumor screening; settings: 10 μM one-dose
SNB-19 = test: NCI60 antitumor screening; settings: 10 μM one-dose
SNB-75 = test: NCI60 antitumor screening; settings: 10 μM one-dose
U251 = test: NCI60 antitumor screening; settings: 10 μM one-dose
LOX IMVI = test: NCI60 antitumor screening; settings: 10 μM one-dose
MALME-3M = test: NCI60 antitumor screening; settings: 10 μM one-dose
M14 = test: NCI60 antitumor screening; settings: 10 μM one-dose
MDA-MB-435 = test: NCI60 antitumor screening; settings: 10 μM one-dose
SK-MEL-2 = test: NCI60 antitumor screening; settings: 10 μM one-dose
SK-MEL-28 = test: NCI60 antitumor screening; settings: 10 μM one-dose
SK-MEL-5 = test: NCI60 antitumor screening; settings: 10 μM one-dose
UACC-257 = test: NCI60 antitumor screening; settings: 10 μM one-dose
UACC-62 = test: NCI60 antitumor screening; settings: 10 μM one-dose
IGROV1 = test: NCI60 antitumor screening; settings: 10 μM one-dose
OVCAR-3 = test: NCI60 antitumor screening; settings: 10 μM one-dose
OVCAR-4 = test: NCI60 antitumor screening; settings: 10 μM one-dose
OVCAR-5 = test: NCI60 antitumor screening; settings: 10 μM one-dose
OVCAR-8 = test: NCI60 antitumor screening; settings: 10 μM one-dose
NCI/ADR-RES = test: NCI60 antitumor screening; settings: 10 μM one-dose
SK-OV-3 = test: NCI60 antitumor screening; settings: 10 μM one-dose
786–0 = test: NCI60 antitumor screening; settings: 10 μM one-dose
A498 = test: NCI60 antitumor screening; settings: 10 μM one-dose
ACHN = test: NCI60 antitumor screening; settings: 10 μM one-dose
CAKI-1 = test: NCI60 antitumor screening; settings: 10 μM one-dose
RXF 393 = test: NCI60 antitumor screening; settings: 10 μM one-dose
SN12C = test: NCI60 antitumor screening; settings: 10 μM one-dose
TK-10 = test: NCI60 antitumor screening; settings: 10 μM one-dose
UO-31 = test: NCI60 antitumor screening; settings: 10 μM one-dose
PC-3 = test: NCI60 antitumor screening; settings: 10 μM one-dose
DU-145 = test: NCI60 antitumor screening; settings: 10 μM one-dose
MCF7 = test: NCI60 antitumor screening; settings: 10 μM one-dose
MDA-MB-231/ATCC = test: NCI60 antitumor screening; settings: 10 μM one-dose
HS 578T = test: NCI60 antitumor screening; settings: 10 μM one-dose
BT-549 = test: NCI60 antitumor screening; settings: 10 μM one-dose
T-47D = test: NCI60 antitumor screening; settings: 10 μM one-dose
MDA-MB-468 = test: NCI60 antitumor screening; settings: 10 μM one-dose
NCI60 cell lines panel = test: NCI60 antitumor screening, full panel; settings: 10 μM one-dose, mean over NCI60
How it was run: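 Percent growth inhibition (GI%) was recorded for each of the NCI60 lines, spanning leukaemia, lung, colon, CNS, melanoma, ovarian, renal, prostate and breast cancers, after exposure to compounds at one concentration, 10 μM.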

N#Cc1c(-c2ccc(F)cc2)nc(SCc2ccc([N+](=O)[O-])cc2)[nH]c1=O [2c, 4-(4-Fluorophenyl)-2-((4-nitrobenzyl)thio)-6-oxo-1,6-dihydropyrimidine-5-carbonitrile]
GI% (CCRF-CEM): 15.45% | GI% (HL-60(TB)): 49.95% | GI% (K-562): 31.45% | GI% (MOLT-4): 24.34% | GI% (RPMI-8226): 14.16% | GI% (SR): — (GI% < 10) | GI% (A549/ATCC): — (GI% < 10) | GI% (EKVX): 12.04% | GI% (HOP-62): — (GI% < 10) | GI% (HOP-92): 33.01% | GI% (NCI-H226): 22.53% | GI% (NCI-H23): — (GI% < 10) | GI% (NCI-H322M): — (GI% < 10) | GI% (NCI-H460): — (GI% < 10) | GI% (NCI-H522): 30.52% | GI% (COLO 205): — (GI% < 10) | GI% (HCC-2998): — (GI% < 10) | GI% (HCT-116): 22.23% | GI% (HCT-15): 13.42% | GI% (HT29): 37.56% | GI% (KM12): — (GI% < 10) | GI% (SW-620): 10.78% | GI% (SF-268): — (GI% < 10) | GI% (SF-295): 10.37% | GI% (SF-539): — (GI% < 10) | GI% (SNB-19): — (GI% < 10) | GI% (SNB-75): — (GI% < 10) | GI% (U251): 13.78% | GI% (LOX IMVI): 14.24% | GI% (MALME-3M): — (GI% < 10) | GI% (M14): — (GI% < 10) | GI% (MDA-MB-435): — (GI% < 10) | GI% (SK-MEL-2): — (GI% < 10) | GI% (SK-MEL-28): — (GI% < 10) | GI% (SK-MEL-5): 11.85% | GI% (UACC-257): — (GI% < 10) | GI% (UACC-62): 11.42% | GI% (IGROV1): — (GI% < 10) | GI% (OVCAR-3): — (GI% < 10) | GI% (OVCAR-4): — (GI% < 10) | GI% (OVCAR-5): — (GI% < 10) | GI% (OVCAR-8): — (GI% < 10) | GI% (NCI/ADR-RES): 12.03% | GI% (SK-OV-3): — (GI% < 10) | GI% (786–0): — (GI% < 10) | GI% (A498): — (GI% < 10) | GI% (ACHN): — (GI% < 10) | GI% (CAKI-1): 10.99% | GI% (RXF 393): — (GI% < 10) | GI% (SN12C): 14.07% | GI% (TK-10): — (GI% < 10) | GI% (UO-31): 11.53% | GI% (PC-3): 18.97% | GI% (DU-145): — (GI% < 10) | GI% (MCF7): — (GI% < 10) | GI% (MDA-MB-231/ATCC): — (GI% < 10) | GI% (HS 578T): — (GI% < 10) | GI% (BT-549): — (GI% < 10) | GI% (T-47D): 23.03% | GI% (MDA-MB-468): — (GI% < 10) | Mean GI% (NCI60 cell lines panel): — (GI% < 10)

N#Cc1c(Cl)nc(SCc2ccc(F)cc2)nc1-c1ccc(F)cc1 [3b, 4-Chloro-2-((4-fluorobenzyl)thio)-6-(4-fluorophenyl) pyrimidine-5-carbonitrile]
GI% (CCRF-CEM): 13.30% | GI% (HL-60(TB)): 49.83% | GI% (K-562): 30.20% | GI% (MOLT-4): 19.35% | GI% (RPMI-8226): — (GI% < 10) | GI% (SR): — (GI% < 10) | GI% (A549/ATCC): — (GI% < 10) | GI% (EKVX): 10.91% | GI% (HOP-62): — (GI% < 10) | GI% (HOP-92): 25.21% | GI% (NCI-H226): 28.68% | GI% (NCI-H23): — (GI% < 10) | GI% (NCI-H322M): — (GI% < 10) | GI% (NCI-H460): — (GI% < 10) | GI% (NCI-H522): 25.38% | GI% (COLO 205): — (GI% < 10) | GI% (HCC-2998): — (GI% < 10) | GI% (HCT-116): 18.51% | GI% (HCT-15): 13.00% | GI% (HT29): 13.44% | GI% (KM12): — (GI% < 10) | GI% (SW-620): — (GI% < 10) | GI% (SF-268): — (GI% < 10) | GI% (SF-295): 10.01% | GI% (SF-539): — (GI% < 10) | GI% (SNB-19): — (GI% < 10) | GI% (SNB-75): — (GI% < 10) | GI% (U251): — (GI% < 10) | GI% (LOX IMVI): — (GI% < 10) | GI% (MALME-3M): — (GI% < 10) | GI% (M14): — (GI% < 10) | GI% (MDA-MB-435): — (GI% < 10) | GI% (SK-MEL-2): — (GI% < 10) | GI% (SK-MEL-28): — (GI% < 10) | GI% (SK-MEL-5): 13.82% | GI% (UACC-257): — (GI% < 10) | GI% (UACC-62): 13.95% | GI% (IGROV1): — (GI% < 10) | GI% (OVCAR-3): — (GI% < 10) | GI% (OVCAR-4): — (GI% < 10) | GI% (OVCAR-5): — (GI% < 10) | GI% (OVCAR-8): 10.81% | GI% (NCI/ADR-RES): 13.45% | GI% (SK-OV-3): — (GI% < 10) | GI% (786–0): — (GI% < 10) | GI% (A498): — (GI% < 10) | GI% (ACHN): — (GI% < 10) | GI% (CAKI-1): — (GI% < 10) | GI% (RXF 393): 10.29% | GI% (SN12C): 19.06% | GI% (TK-10): — (GI% < 10) | GI% (UO-31): 12.89% | GI% (PC-3): — (GI% < 10) | GI% (DU-145): — (GI% < 10) | GI% (MCF7): 17.40% | GI% (MDA-MB-231/ATCC): — (GI% < 10) | GI% (HS 578T): — (GI% < 10) | GI% (BT-549): — (GI% < 10) | GI% (T-47D): 33.18% | GI% (MDA-MB-468): — (GI% < 10) | Mean GI% (NCI60 cell lines panel): — (GI% < 10)
